GI50 and TGI data for 11 molecules are collected here from PubChem BioAssay (NCI).

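Following 48 hours of exposure in 96-well plates, responses at five concentrations were used to interpolate endpoints linearly. GI50: concentration for 50% inhibition of growth. TGI marks complete inhibition of growth.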

Test systems include SF-268 CNS; SF-539 CNS; A498 renal; SK-MEL-5 melanoma; NCI-H226 lung; HCT-15 colon; HT29 colon; SK-MEL-2 melanoma; CAKI-1 renal; SW-620 colon.
Common to all, as to assay: NCI tumour cell line growth inhibition, 48 h

Consider `N=C(N)c1ccc(-c2ccc(-c3ccc(Cl)cn3)s2)cc1`, for which the GI50 is 9.67 µM in the experiment on SF-268 CNS; 1.63 µM in the experiment on SF-539 CNS; 3.82 µM in the experiment on A498 renal; 1.77 µM with SK-MEL-5 melanoma; 2.76 µM in the experiment on NCI-H226 lung; 1.61 µM in the experiment on HCT-15 colon. Further, the TGI is 39.3 µM in the experiment with SF-268 CNS; 3.01 µM with SF-539 CNS; 17.3 µM with A498 renal; 3.19 µM in the experiment with SK-MEL-5 melanoma; 12 µM in the experiment on NCI-H226 lung; 3.08 µM in the experiment on HCT-15 colon.

For `O=C(O)c1ccccn1`, the TGI in the experiment with HT29 colon, with SF-268 CNS, in the experiment with SK-MEL-2 melanoma, in the experiment with SF-539 CNS, in the experiment with A498 renal and in the experiment on CAKI-1 renal was more than 100 µM each time. In addition, the TGI in the experiment on SK-MEL-5 melanoma, with SW-620 colon, with NCI-H226 lung and with HCT-15 colon was more than 100 µM in each case.

As for `O=C(CC1(O)C(=O)Nc2ccc(Br)cc21)c1ccc(C(=O)NCC2CCC3(CC2)OOC2(CCCCC2)OO3)cc1` (configuration not stated), the GI50 in the experiment on HT29 colon is 4.96 µM; in the experiment on SF-268 CNS it was 6.16 µM; in the experiment with SK-MEL-2 melanoma, 2.92 µM; in the experiment with SF-539 CNS, 3.9 µM; with A498 renal, 14.7 µM; in the experiment with CAKI-1 renal, 13.5 µM. The GI50 in the experiment with SK-MEL-5 melanoma is 2.4 µM; with SW-620 colon, 2.76 µM; in the experiment on NCI-H226 lung, 4.7 µM; with HCT-15 colon, 4.59 µM. Further, the TGI is 23 µM with HT29 colon; 36.5 µM with SF-268 CNS; 9.23 µM with SK-MEL-2 melanoma; 17.6 µM with SF-539 CNS; 30.2 µM in the experiment on A498 renal; 31.2 µM in the experiment with CAKI-1 renal. Further, the TGI with SK-MEL-5 melanoma is 7.09 µM; in the experiment with SW-620 colon it was 13 µM; in the experiment with NCI-H226 lung, 30 µM; with HCT-15 colon, 34.3 µM.

Take `CN(C)c1ccc(C2CC(=O)C(C#N)=C(c3ccccc3)NN2C)cc1` (configuration not stated): the TGI in the experiment on HT29 colon was 24.5 µM; in the experiment on SF-268 CNS it was more than 100 µM; with SK-MEL-2 melanoma it was 57.2 µM; in the experiment with A498 renal, more than 100 µM; in the experiment on CAKI-1 renal, more than 100 µM; with SK-MEL-5 melanoma it was 11.9 µM. The values for the TGI with SW-620 colon, in the experiment on NCI-H226 lung and in the experiment on HCT-15 colon were more than 100 µM, more than 100 µM and 32.5 µM, respectively.

On to `CC(C)(C)C1CCC2(CC1)CCN(CCCN1CCOCC1)CC2`, for which the TGI in the experiment with HT29 colon was more than 34.2 µM; in the experiment with SF-268 CNS it was more than 100 µM; in the experiment with SK-MEL-2 melanoma, 53.2 µM; in the experiment on SF-539 CNS it was more than 51.1 µM; with A498 renal, more than 57.4 µM; in the experiment with CAKI-1 renal, more than 88 µM. Besides, the TGI in the experiment on SK-MEL-5 melanoma was 21.4 µM; in the experiment on SW-620 colon, more than 59.3 µM; in the experiment with NCI-H226 lung, more than 100 µM; in the experiment on HCT-15 colon, more than 57.9 µM.

With `CC(C)CNc1nc(N)[nH]c(=O)c1NC=O`, the TGI in the experiment with HT29 colon, with SF-268 CNS, in the experiment on SK-MEL-2 melanoma, with SF-539 CNS, in the experiment on A498 renal and with CAKI-1 renal was more than 100 µM in each case. In addition, the TGI with SK-MEL-5 melanoma, in the experiment with SW-620 colon, with NCI-H226 lung and with HCT-15 colon was more than 100 µM in each case.

Consider `COc1cnc2c(c1)C(=O)c1c-2n(CCCN2CCNCC2)c(=O)c2cc(Cl)ccc12`, for which the GI50 was 0.66 µM in the experiment with HT29 colon; 1.07 µM in the experiment with SF-268 CNS; 2.11 µM in the experiment on SK-MEL-2 melanoma; 1.33 µM in the experiment on SF-539 CNS; 0.551 µM with A498 renal; 0.414 µM in the experiment with CAKI-1 renal. The results for the GI50 in the experiment on SW-620 colon and in the experiment with NCI-H226 lung were 0.0856 µM and 1.04 µM, respectively. The TGI in the experiment with HT29 colon was found to be 2.21 µM; with SF-268 CNS it was 2.63 µM; with SK-MEL-2 melanoma, 4.65 µM; in the experiment with SF-539 CNS, 2.63 µM; in the experiment on A498 renal, 2.28 µM; in the experiment on CAKI-1 renal, 1.91 µM. Besides, the TGI in the experiment on SW-620 colon came out at 1.82 µM; in the experiment on NCI-H226 lung, 4.91 µM.

In the case of `CN(C)[C@@H]1C(=O)C(C(=O)NCNCCCC(=O)O)=C(O)[C@@]2(O)C(=O)C3=C(O)c4c(O)cccc4[C@@](C)(O)[C@H]3C[C@@H]12`, the TGI in the experiment with HT29 colon, in the experiment on SF-268 CNS, in the experiment with SK-MEL-2 melanoma, with SF-539 CNS, in the experiment on A498 renal and in the experiment with CAKI-1 renal was more than 100 µM throughout. The TGI in the experiment on SK-MEL-5 melanoma, with SW-620 colon, with NCI-H226 lung and in the experiment with HCT-15 colon was more than 100 µM each time.

Turning to `COc1cc2ccc1-c1cc(ccc1O)CC1c3cc4c(cc3CCN1C)Oc1c(OC)cc3c(c1O4)C(C2)N(C)CC3` (configuration not stated), the TGI was 3.27 µM in the experiment on HT29 colon; 3.52 µM with SF-268 CNS; 3.38 µM in the experiment on SK-MEL-2 melanoma; 3.27 µM in the experiment with SF-539 CNS; 3.79 µM in the experiment on A498 renal; 5.79 µM with CAKI-1 renal. Besides, the TGI with SK-MEL-5 melanoma stood at 3.52 µM; in the experiment with SW-620 colon, 3.31 µM; in the experiment on NCI-H226 lung it was 4.08 µM; with HCT-15 colon, 3.12 µM.

As for `Oc1cc(O)cc(/C=C/c2ccc(O)c(O)c2)c1`, the TGI in the experiment on HT29 colon was 57 µM; in the experiment on SF-268 CNS, 56.3 µM; with SK-MEL-2 melanoma it was 16 µM; in the experiment with SF-539 CNS, 22.9 µM; with A498 renal it was more than 70 µM; in the experiment with CAKI-1 renal, more than 30.8 µM. The TGI in the experiment with SK-MEL-5 melanoma was more than 49.1 µM; in the experiment on SW-620 colon, more than 51.8 µM; in the experiment with NCI-H226 lung, 42.1 µM; in the experiment with HCT-15 colon, more than 100 µM.

On to `NCS(=O)(=O)O`, for which the TGI in the experiment on HT29 colon is more than 100 µM; in the experiment on SF-268 CNS, more than 100 µM; in the experiment on SK-MEL-2 melanoma, more than 100 µM; with SF-539 CNS, 52.6 µM; in the experiment with A498 renal, more than 100 µM; in the experiment on CAKI-1 renal, more than 100 µM. Also, the TGI in the experiment on SK-MEL-5 melanoma, with SW-620 colon, in the experiment on NCI-H226 lung and in the experiment with HCT-15 colon was more than 100 µM in each case.
